Patent publication US8962558B2, “Methods for reducing GnRH-positive tumor cell proliferation using the GnRH antagonist IN3” (priority 1997, dated 2015)

How the values were obtained:
[1] = tested on: malignant gliomas U-87MG and U-373MG; assay: In vivo study with tumor-implanted nude mice (Example 4); conditions: daily dosages
Protocol: An effect of the treatment of tumor-implanted nude mice (Pinski et al., supra) each with one of the GnRH agonists Buserelin, Triptorelin, Goserelin, and Leuprorelin and each with one of the GnRH antagonists Cetrorelix® (SB-75), Antarelix®, Antide®, and Ramorelix® on the growth of malignant gliomas U-87MG and U-373MG was carried out using daily dosages and controls in nude mice using analysis techniques described for the determination of the efficacy of similar peptides in Pinski et al., supra.

BLM melanoma cells [2] = assay: Matrigel gel assay (invasion); type: cell-based, human; conditions: 10^−6 M; 4, 8 and 12 days
Protocol: This dose has been also used in previous papers analyzing the interaction between GnRH agonists and stimulatory growth factors in prostate cancer cells. Subconfluent BLM cells were collected by trypsinization, resuspended in culture medium and seeded in 20 μL (150,000 cells/drop) on the lid of a culture dish. The lid was then placed on a dish filled with 2 mL of culture medium and incubated at 37° C. for 48 h. Matrigel solution (80 μL, 2.7 mg/mL) was pipetted onto the bottom of wells of a 24-well culture dish, and left to set at 37° C. Cell aggregates were transferred over the cushion and then overlaid with additional 20 μL of Matrigel. The aggregates into Matrigel were covered with 400 μL culture medium in the absence or in the presence of LHRH-A (10^−6 M). The aggregates were then observed daily under a light microscope and at the end of the incubation time phase-contrast pictures of the aggregates were taken.

[3] = tested on: BLM melanoma tumor cell line implant; type: in vivo, nude mice
Protocol: In one series of experiments, nude mice bearing human melanoma tumor cell line xenotransplants were treated for two weeks with 100 μg of Goserelin daily, while a second group of mice was administered 200 μg of Goserelin daily, with an additional daily supplement given by subcutaneous injection. […] The in vivo tumor growth has three predominant characteristics: mitotic activity, dedifferentiation, and infiltration of cells into the surrounding tissue and vessels.
Results for this study are depicted in FIG. 21. These observations are in line with the previously shown inhibition of Matrigel invasion of BLM cells under Zoladex treatment, as described above. A histological investigation of the tumor before and after treatment has confirmed this finding (results not shown).
In another set of experiments, ZOLADEX® treatment was administered to mice for a period of four to eight weeks, with an additional GnRH antagonist treatment to avoid any tumor proliferation (i.e. flare up) following cessation of the therapy and to avoid tumor cell receptor depletion.

BLM cells = assay: In vivo study in nude mice inoculated with malignant melanoma, low dosage experiment; conditions: 100 μg per mouse daily, 2-3 weeks
Protocol: Sixteen male nude mice were injected s.c. in the flank with 1×10^6 (0.2 ml/mouse) BLM cells. The treatment started the same day: Eight mice received daily 100 μg […]® per mouse in 200 μl saline. Eight control mice were treated with 200 μl saline each. The treatment lasted 2-3 weeks. Every 2 to 3 days the volume of the tumors was determined by caliper.

BLM melanoma cells [4] = assay: Chemomigration assay (Boyden's chamber); type: cell-based, human; conditions: 10^−6 M pretreatment for 5 days, FBS 5%
Protocol: The assay was performed using a 48-well Boyden's chamber, according to the manufacturer's instruction (Neuroprobe, Cabin John, Md.). Subconfluent BLM cells, grown in culture medium, were pretreated for 5 days with LHRH-A (10^−6 M) and harvested at the end of the treatment. BLM cell suspensions (10^5 cells/50 μL), resuspended in culture medium deprived of FBS, were placed in the open-bottom wells of the upper compartment of the chamber. Each pair of wells were separated by polyvinylpyrrolidone-free polycarbonate porous membrane (8-μm pores) pre-coated with gelatin (0.2 mg/mL in PBS). The chemoattractant (FBS 5%) was placed in the lower compartment of the chamber. The chamber was then kept for 4 h in the cell culture incubator. After that, the cells migrated through the pores, and adhered to the underside of the membrane, were fixed, stained (Diff-Quick kit, DADE, Dudingen, CH) and mounted onto glass slides. For quantitative analysis, six random objective fields of stained cells were counted for each well (8 wells/experimental group) and the mean number of migrating cells/mm^2 was calculated. The data obtained from four independent experiments were compared by ANOVA and Dunnett's test.

Me15392 melanoma cells = assay: Cell proliferation studies, Me15392 cells; type: cell-based, human; conditions: 10^−11-10^−6 M, 7 days
Protocol: The antiproliferative action of GnRH agonists on melanoma cells is further investigated in another melanoma cell line (Me15392). These experiments have been carried out as described above for BLM cells (same GnRH agonist, same doses of the drug and same length of treatment, etc.). All proliferation experiments were performed in four to six replicates. The data obtained from three independent experiments were analyzed according to the Dunnett's test after one-way ANOVA.

CC(C)C[C@H](NC(=O)[C@@H](COC(C)(C)C)NC(=O)[C@H](Cc1ccc(O)cc1)NC(=O)[C@H](CO)NC(=O)[C@H](Cc1c[nH]c2ccccc12)NC(=O)[C@H](Cc1cnc[nH]1)NC(=O)[C@@H]1CCC(=O)N1)C(=O)N[C@@H](CCCNC(=N)N)C(=O)N1CCC[C@H]1C(=O)NNC(N)=O [ZOLADEX®, D-Ser(tBu)^6Aza-Gly-LHRH]
growth of malignant gliomas [1]: Significant growth-inhibiting effects
migration of the cells through the Matrigel (BLM melanoma cells [2]): completely abrogates
reduction in tumor weight ([3]; 100 μg or 200 μg daily, after two weeks, both groups): 50%
persistence of tumor growth inhibition despite cessation of treatment ([3]; 100 μg/day or 200 μg/day): ~4 weeks
growth inhibitory effect compared with 100 μg/day ([3]; 200 μg/day): even more powerful growth inhibitory effect
tumor growth once treatment has stopped ([3]; after two weeks (16 days) of treatment): rebound of tumor growth (flare up) is observed
inhibition of BLM cell growth ([3]; mouse, in vivo): about 50%
tumors smaller with respect to the controls (BLM cells): 15-20%
number of cells that migrate in response to the chemoattractant (BLM melanoma cells [4]): significantly decreased
cell proliferation (Me15392 melanoma cells): significant and dose-dependent inhibition of cell proliferation
